We go through 29 compounds from patent publication US6287794A, “Factor Vlla inhibitors” (Aventis Pharma Deutschland GmbH, priority 1998, dated 2001).

Non-standard residues stand in square brackets, D forms with d. Residues, ends and D or L forms follow the SMILES beside them. *: point of attachment. dPhe(4-guanidino) = N=C(N)Nc1ccc(C[C@@H](N)C(=O)O)cc1; Phe(4-NO2) = N[C@@H](Cc1ccc([N+](=O)[O-])cc1)C(=O)O; Phe(4-amidino) = N=C(N)c1ccc(C[C@H](N)C(=O)O)cc1; Arg(NO2) = N=C(NCCC[C@H](N)C(=O)O)N[N+](=O)[O-]; Orn(acetimidoyl) = CC(=N)NCCC[C@H](N)C(=O)O; Cha = N[C@@H](CC1CCCCC1)C(=O)O; Agb = N=C(N)NCC[C@H](N)C(=O)O; Ala(CN) = N#CC[C@H](N)C(=O)O; Phg = N[C@H](C(=O)O)c1ccccc1; Dab = NCC[C@H](N)C(=O)O; Alloc = C=CCOC(=O)*; Bn = c1ccc(C*)cc1

For this assay, the target named is T1, human factor VIIa and TF (Homo sapiens, UniProt P08709).
T1 construct: human factor VIIa and TF
T1 sequence (P08709 213-466 limits assumed): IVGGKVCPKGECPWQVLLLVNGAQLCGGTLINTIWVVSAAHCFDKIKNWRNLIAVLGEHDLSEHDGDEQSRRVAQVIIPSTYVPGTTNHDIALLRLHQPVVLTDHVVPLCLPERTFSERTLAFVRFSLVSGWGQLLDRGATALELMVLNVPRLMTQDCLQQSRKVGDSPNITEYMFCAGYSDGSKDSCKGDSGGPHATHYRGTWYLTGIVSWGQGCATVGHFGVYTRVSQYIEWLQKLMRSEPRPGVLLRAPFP
T1 sequence (P08709 61-212 limits assumed): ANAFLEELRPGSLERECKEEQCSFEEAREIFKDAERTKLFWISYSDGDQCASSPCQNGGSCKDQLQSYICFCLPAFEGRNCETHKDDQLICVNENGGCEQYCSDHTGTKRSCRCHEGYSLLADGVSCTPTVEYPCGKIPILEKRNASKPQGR
T1 sequence (P13726 33-295 partner): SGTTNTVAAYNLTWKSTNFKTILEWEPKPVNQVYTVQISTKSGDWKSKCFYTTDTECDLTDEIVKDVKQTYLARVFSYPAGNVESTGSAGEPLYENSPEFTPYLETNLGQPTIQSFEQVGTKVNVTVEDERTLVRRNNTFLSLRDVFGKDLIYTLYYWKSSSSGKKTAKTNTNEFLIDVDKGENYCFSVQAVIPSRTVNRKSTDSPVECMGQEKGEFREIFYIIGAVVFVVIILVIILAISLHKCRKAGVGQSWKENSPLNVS
As to the kind of experiment: Determination of Ki for FVIIa inhibition (chromogenic assay, substrate S-2288). It is filed as biochemical. Conditions: human factor VIIa 5 nM and TF 10 nM, S-2288 500 μM, 25° C., 15 minute preincubation, pH 8.15; read-out: Factor VIIa inhibitory activities Ki. As for the experimental part:
The inhibitory activity (Ki) of each compound towards […] activity was determined using a chromogenic assay essentially as described previously. J. A. Ostrem, F. Al-Obeidi, P. Safar, A. Safarova, S. K. Stringer, M. Patek, M. T. Cross, J. Spoonamore, J. C. LoCascio, P. Kasireddy, D. S. Thorpe, N. Sepetov, M. Lebi, P. Wildgoose, P. Strop, "Discovery of a novel, potent, and specific family of factor Xa inhibitors via combinatorial chemistry". Biochemistry 37 (1998) 1053-1059. Kinetic assays were conducted at 25° C. in half-area microtiter plates (Costar Corp., Cambridge, Mass.) using a kinetic plate reader (Molecular Devices Spectramax 250). A typical assay consisted of 25 μl of human factor VIIa and TF (5 nM and 10 nM, respective final concentration) combined with 40 μl of inhibitor dilutions in 10% DMSO/TBS-PEG buffer (50 mM Tris, 15 mM NaCl, 5 mM CaCl2; 0.05% PEG 8k, pH 8.15). Following a 15 minute preincubation period, the assay was initiated by the addition of 35 μl of the chromogenic substrate S-2288 (D-Ile-Pro-Arg-pNA, Pharmacia Hepar Inc, 500 μM final concentration.). The apparent inhibition constants were calculated from the slope of the progress curves during the linear part of the time course, typically between 1 and 5 min following addition of substrate to the assay. The true Ki was subsequently determined for each compound by correcting for substrate concentration (S) and the Km using the formula Ki=Ki app/(1+(S)/Km). I. H. Segal, Enzyme Kinetics, pp 100-125 (John Wiley & Sons, N.Y., 1975).

Turning to `C=CCOC(=O)N[C@@H](Cc1ccc(C(=N)N)cc1)C(=O)N[C@@H](CCC(=O)O)C(=O)N[C@@H](CSCc1ccccc1)C(=O)N[C@@H](CC1CCCCC1)C(N)=O` [Alloc--pAph--Glu--Cys(Bzl)--Cha--NH2] (Alloc-[Phe(4-amidino)]EC(Bn)[Cha]-NH2), the Ki (in general, a dissociation constant, usually derived from enzyme kinetics or from competition with a known ligand) amounted to 26 nM.
Under `C=CCOC(=O)N[C@@H](Cc1ccc(C(=N)N)cc1)C(=O)N[C@@H](CCC(=O)O)C(=O)N[C@@H](CC(N)=O)C(=O)N[C@@H](CC1CCCCC1)C(N)=O` [Alloc--pAph--Glu--Asn--Cha--NH2, Alloc-pAph-Glu-Asn-Cha-NH2] (Alloc-[Phe(4-amidino)]EN[Cha]-NH2) stands 21 nM.
Under `C=CCOC(=O)N[C@@H](Cc1ccc(C(=N)N)cc1)C(=O)N[C@@H](CCC(=O)O)C(=O)N[C@@H](CC(N)=O)C(=O)NCc1ccc(F)cc1F` [Alloc--pAph--Glu--Asn-2,4-difluorobenzylamide] stands 51 nM.
Under `C=CCOC(=O)N[C@@H](Cc1ccc(C(=N)N)cc1)C(=O)N[C@@H](CCC(=O)O)C(=O)N[C@@H](CC(N)=O)C(=O)NC1CCCc2ccccc21` (some centres unmarked) [Alloc--pAph--Glu--Asn-1,2,3,4-tetrahydro-1-naphthylamide] stands 45 nM.
On to `C=CCOC(=O)N[C@@H](Cc1ccc(C(=N)N)cc1)C(=O)N[C@@H](CCC(=O)O)C(=O)N[C@@H](CC(N)=O)C(=O)NCc1cc(C(F)(F)F)cc(C(F)(F)F)c1` [Alloc--pAph--Glu--Asn-3,5-bistrifluoromethylbenzylamide], for which the Ki is 33 nM.
For `C=CCOC(=O)N[C@@H](Cc1ccc(C(=N)N)cc1)C(=O)N[C@@H](CCC(=O)O)C(=O)N[C@@H](CC#N)C(=O)N[C@@H](CC1CCCCC1)C(N)=O` [Alloc--pAph--Glu--Ala(3-CN)--Cha--NH2] (Alloc-[Phe(4-amidino)]E[Ala(CN)][Cha]-NH2) the value was 120 nM; for `C=CCOC(=O)N[C@@H](Cc1ccc(C(=N)N)cc1)C(=O)N[C@@H](CCC(=O)O)C(=O)N[C@@H](CCCNC(=N)N[N+](=O)[O-])C(=O)N[C@@H](CC1CCCCC1)C(N)=O` [Alloc--pAph--Glu--Arg(NO2)--Cha--NH2] (Alloc-[Phe(4-amidino)]E[Arg(NO2)][Cha]-NH2), 14 nM.
Under `C=CCOC(=O)N[C@@H](Cc1ccc(C(=N)N)cc1)C(=O)N[C@@H](CCC(=O)O)C(=O)N[C@@H](CNC(C)=N)C(=O)N[C@@H](CC1CCCCC1)C(N)=O` [Alloc-pAph-Glu-Dap[--C(=NH)--CH3 ]-Cha-NH2] stands 110 nM; under `C=CCOC(=O)N[C@@H](Cc1ccc(C(=N)N)cc1)C(=O)N[C@@H](CCC(=O)O)C(=O)N[C@@H](CC(N)=O)C(=O)NCCN1CCOCC1` [Alloc--pAph--Glu--Asn-2-(4-morpholinyl)ethylamide], 410 nM.
Regarding `C=CCOC(=O)N[C@@H](Cc1ccc(C(=N)N)cc1)C(=O)N[C@@H](CCC(=O)O)C(=O)N[C@@H](CCNC(=N)N)C(=O)N[C@@H](CC1CCCCC1)C(N)=O` [Alloc--pAph--Glu--Dab[--C(=NH)--NH2]--Cha--NH2] (Alloc-[Phe(4-amidino)]E[Agb][Cha]-NH2), the Ki stood at 12 nM.
For `C=CCOC(=O)N[C@@H](Cc1ccc(C(=N)N)cc1)C(=O)N[C@@H](CCC(=O)O)C(=O)N[C@@H](CC(N)=O)C(=O)N(Cc1ccccc1)Cc1ccccc1` [Alloc--pAph--Glu--Asn-N,N-dibenzylamide] the value was 410 nM; for `C=CCOC(=O)N[C@@H](Cc1ccc(C(=N)N)cc1)C(=O)N[C@@H](CCC(=O)O)C(=O)N[C@@H](CCCNC(C)=N)C(=O)N[C@@H](CC1CCCCC1)C(N)=O` [Alloc--pAph--Glu--Orn[--C(=NH)--CH3]--Cha--NH2] (Alloc-[Phe(4-amidino)]E[Orn(acetimidoyl)][Cha]-NH2), 130 nM.
For `C=CCOC(=O)N[C@@H](Cc1ccc(C(=N)N)cc1)C(=O)N[C@@H](CCC(=O)O)C(=O)N[C@@H](CC(=N)N)C(=O)N[C@@H](CC1CCCCC1)C(N)=O` [Alloc-pAph-Glu-Ala[3-C(=NH)--NH2 ]-Cha-NH2] the value was 30 nM.
Turning to `C=CCOC(=O)N[C@@H](Cc1ccc(C(=N)N)cc1)C(=O)N[C@@H](CCC(=O)O)C(=O)N[C@@H](CC(N)=O)C(=O)NCc1ccc2ccccc2c1` [Alloc--pAph--Glu--Asn-2-naphthylmethylamide], the Ki turned out to be 27 nM.
Turning to `C=CCOC(=O)N[C@@H](Cc1ccc(C(=N)N)cc1)C(=O)N[C@@H](CCC(=O)O)C(=O)N[C@@H](CC(N)=O)C(=O)NCCC(C)C` [Alloc--pAph--Glu--Asn-3-methylbutylamide], the Ki stood at 110 nM.
Turning to `C=CCOC(=O)N[C@@H](Cc1ccc(C(=N)N)cc1)C(=O)N[C@@H](CCC(=O)O)C(=O)N[C@H](C(=O)N[C@@H](CC1CCCCC1)C(N)=O)c1ccccc1` [Alloc--pAph--Glu--Phg--Cha--NH2] (Alloc-[Phe(4-amidino)]E[Phg][Cha]-NH2), the Ki was found to be 17 nM.
For `C=CCOC(=O)N[C@@H](Cc1ccc(C(=N)N)cc1)C(=O)N[C@@H](CCC(=O)O)C(=O)N[C@@H](CC(N)=O)C(=O)NCCC(c1ccccc1)c1ccccc1` [Alloc--pAph--Glu--Asn-3,3-diphenylpropylamide] the value was 24 nM; for `C=CCOC(=O)N[C@@H](Cc1ccc(C(=N)N)cc1)C(=O)N[C@@H](CCC(=O)O)C(=O)N[C@@H](CC(N)=O)C(=O)NC1c2ccccc2-c2ccccc21` [Alloc--pAph--Glu--Asn-9-fluorenylamide], 23 nM.
Under `C=CCOC(=O)N[C@@H](Cc1ccc(C(=N)N)cc1)C(=O)N[C@@H](CCC(=O)O)C(=O)N[C@H](Cc1ccc(NC(=N)N)cc1)C(=O)N[C@@H](CC1CCCCC1)C(N)=O` [Alloc--pAph--Glu--D--Phe(4-guanidino)--Cha--NH2] (Alloc-[Phe(4-amidino)]E[dPhe(4-guanidino)][Cha]-NH2) stands 11300 nM; under `C=CCOC(=O)N[C@@H](Cc1ccc(C(=N)N)cc1)C(=O)N[C@@H](CCC(=O)O)C(=O)N[C@H](CCCNC(=N)N)C(=O)N[C@@H](CC1CCCCC1)C(N)=O` [Alloc--pAph--Glu--D--Arg--Cha--NH2] (Alloc-[Phe(4-amidino)]E[dR][Cha]-NH2), 12000 nM; under `C=CCOC(=O)N[C@@H](Cc1ccc(C(=N)N)cc1)C(=O)N[C@@H](CCC(=O)O)C(=O)N[C@@H](Cc1ccc([N+](=O)[O-])cc1)C(=O)N[C@@H](CC1CCCCC1)C(N)=O` [Alloc--pAph--Glu--Phe(4-NO2)--Cha--NH2] (Alloc-[Phe(4-amidino)]E[Phe(4-NO2)][Cha]-NH2), 46 nM.
Under `C=CCOC(=O)N[C@@H](Cc1ccc(C(=N)N)cc1)C(=O)N[C@@H](CCC(=O)O)C(=O)N[C@@H](CC(N)=O)C(=O)NCC(c1ccccc1)c1ccccc1` [Alloc--pAph--Glu--Asn-2,2-diphenylethylamide] stands 49 nM; under `C=CCOC(=O)N[C@@H](Cc1ccc(C(=N)N)cc1)C(=O)N[C@@H](CCC(=O)O)C(=O)N[C@@H](CC(N)=O)C(=O)NCCc1cccc2ccccc12` [Alloc--pAph--Glu--Asn-2-(1-naphthyl)ethylamide], 22 nM; under `C=CCOC(=O)N[C@@H](Cc1ccc(C(=N)N)cc1)C(=O)N[C@@H](CCC(=O)O)C(=O)N[C@@H](CC(N)=O)C(=O)NCc1cccc2ccccc12` [Alloc--pAph--Glu--Asn-1-naphthylmethylamide], 31 nM.
`C=CCOC(=O)N[C@@H](Cc1ccc(C(=N)N)cc1)C(=O)N[C@@H](CCC(=O)O)C(=O)N[C@@H](Cc1c[nH]c2ccccc12)C(=O)N[C@@H](CC1CCCCC1)C(N)=O` [Alloc--pAph--Glu--Trp--Cha--NH2] (Alloc-[Phe(4-amidino)]EW[Cha]-NH2): the Ki came to 17 nM.
On to `C=CCOC(=O)N[C@@H](Cc1ccc(C(=N)N)cc1)C(=O)N[C@@H](CCC(=O)O)C(=O)N[C@@H](CC(N)=O)C(=O)NCCCc1ccccc1` [Alloc--pAph--Glu--Asn-3-phenylpropylamide], for which the Ki turned out to be 26 nM.
Under `C=CCOC(=O)N[C@@H](Cc1ccc(C(=N)N)cc1)C(=O)N[C@@H](CCC(=O)O)C(=O)N[C@@H](CC(N)=O)C(=O)NCCc1ccc(S(N)(=O)=O)cc1` [Alloc--pAph--Glu--Asn-2-(4-sulfamoylphenyl)ethylamide] stands 350 nM; under `C=CCOC(=O)NCC[C@H](NC(=O)[C@H](CCC(=O)O)NC(=O)[C@H](Cc1ccc(C(=N)N)cc1)NC(=O)OCC=C)C(=O)N[C@@H](CC1CCCCC1)C(N)=O` [Alloc--pAph--Glu--Dab(Alloc)--Cha--NH2] (Alloc-[Phe(4-amidino)]E[Dab](Alloc)[Cha]-NH2), 150 nM.
For `C=CCOC(=O)N[C@@H](Cc1ccc(C(=N)N)cc1)C(=O)N[C@@H](CCC(=O)O)C(=O)N[C@H](C(=O)N[C@@H](CC1CCCCC1)C(N)=O)[C@@H](C)OCc1ccccc1` [Alloc--pAph--Glu--Thr(Bzl)--Cha--NH2] (Alloc-[Phe(4-amidino)]ET(Bn)[Cha]-NH2) the value was 19 nM.
